Laboratory results as given in ChEMBL document CHEMBL1777711, “Synthesis and bioactivity of new Finasteride conjugate” (Bioorg Med Chem Lett, 2011).
pIC50: −log10 of the molar value. Activity calls are given as the source filed them. The calls are words filed in the database; no cut-off is given here.

Assays:
[1] = test system: Rattus norvegicus; assay: Inhibition of testosterone propionate-induced castrated Wistar rat benign prostatic hyperplasia model assessed as decrease in seminal vesicles weight at 50 mg/kg, iv for 14 days; format: functional, organism-based; set-up: dose 50 mg/kg; conditions: Wister
[2] = test system: Rattus norvegicus; assay: Inhibition of testosterone propionate-induced castrated Wistar rat benign prostatic hyperplasia model assessed as decrease in epithelial protrusions at 10 mg/kg, iv by histochemistry; format: functional, organism-based; set-up: dose 10 mg/kg; conditions: Wister
[3] = test system: Rattus norvegicus; assay: Inhibition of testosterone propionate-induced castrated Wistar rat benign prostatic hyperplasia model assessed as decrease in seminal vesicles weight at 2 mg/kg, iv for 14 days; format: functional, organism-based; set-up: dose 2 mg/kg; conditions: Wister
[4] = test system: Rattus norvegicus; assay: Inhibition of testosterone propionate-induced castrated Wistar rat benign prostatic hyperplasia model assessed as prostate gland arrangement order at 10 mg/kg, iv by histochemistry; format: functional, organism-based; set-up: dose 10 mg/kg; conditions: Wister
[5] = test system: Rattus norvegicus; assay: Inhibition of testosterone propionate-induced castrated Wistar rat benign prostatic hyperplasia model assessed as decrease in prostate weight at 2 mg/kg, iv for 14 days; format: functional, organism-based; set-up: dose 2 mg/kg; conditions: Wister, Prostate gland
[6] = test system: Rattus norvegicus; assay: Toxicity in testosterone propionate-induced castrated Wistar rat benign prostatic hyperplasia model assessed as body weight at 2 to 50 mg/kg, iv for 14 days; format: organism-based, Wister; set-up: dose 2-50 mg/kg, route intravenous; conditions: in vivo, 336 h
[7] = test system: Rattus norvegicus; assay: Inhibition of testosterone propionate-induced castrated Wistar rat benign prostatic hyperplasia model assessed as decrease in pseudostratified epithelia at 10 mg/kg, iv by histochemistry; format: functional, organism-based; set-up: dose 10 mg/kg; conditions: Wister
[8] = test system: Rattus norvegicus; assay: Inhibition of testosterone propionate-induced castrated Wistar rat benign prostatic hyperplasia model assessed as decrease in prostate weight at 10 mg/kg, iv for 14 days; format: functional, organism-based; set-up: dose 10 mg/kg; conditions: Wister, Prostate gland
[9] = test system: Rattus norvegicus; assay: Inhibition of testosterone propionate-induced castrated Wistar rat benign prostatic hyperplasia model assessed as decrease in seminal vesicles weight at 10 mg/kg, iv for 14 days; format: functional, organism-based; set-up: dose 10 mg/kg; conditions: Wister
[10] = test system: Rattus norvegicus; assay: Inhibition of testosterone propionate-induced castrated Wistar rat benign prostatic hyperplasia model assessed as decrease in prostate weight at 50 mg/kg, iv for 14 days; format: functional, organism-based; set-up: dose 50 mg/kg; conditions: Wister, Prostate gland
[11] = test system: Rattus norvegicus; assay: Inhibition of testosterone propionate-induced castrated Wistar rat benign prostatic hyperplasia model assessed as decrease in hyperplasia of interstitial tissues at 10 mg/kg, iv by histochemistry; format: functional, organism-based; set-up: dose 10 mg/kg; conditions: Wister
[12] = target: T1, 3-oxo-5-alpha-steroid 4-dehydrogenase 2 (Rattus norvegicus, UniProt P31214); assay: Inhibition of rat 5-alpha-reductase type 2 by Lineweaver-Burk plot
T1 sequence (P31214 whole entry): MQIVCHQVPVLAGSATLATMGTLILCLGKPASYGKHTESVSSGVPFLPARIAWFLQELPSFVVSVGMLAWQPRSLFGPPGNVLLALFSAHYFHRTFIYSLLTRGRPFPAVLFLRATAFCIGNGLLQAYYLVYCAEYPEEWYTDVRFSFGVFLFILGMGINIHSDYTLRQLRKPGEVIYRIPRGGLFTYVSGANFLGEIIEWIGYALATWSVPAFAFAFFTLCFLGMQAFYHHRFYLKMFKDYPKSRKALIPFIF

[13] = test system: Rattus norvegicus; assay: Toxicity in testosterone propionate-induced castrated Wistar rat benign prostatic hyperplasia model assessed as vital signs at 10 mg/kg, iv […]; format: organism-based, Wister; set-up: dose 10 mg/kg, route intravenous; conditions: in vivo

SMILES	inhibition [1]	inhibition [2]	inhibition [3]	inhibition [4]	inhibition [5]	Activity [6]	inhibition [7]	inhibition [8]	inhibition [9]	inhibition [10]	inhibition [11]	pIC50 [12]	Activity [13]
CC(C)(C)N(C(=O)C1CSCN1C(=O)C1CCC(=O)N1)C(=O)[C@H]1CC[C@H]2[C@@H]3CC[C@H]4NC(=O)C=C[C@]4(C)[C@H]3CC[C@]12C (stereo partly specified)	Active	Active	Active	Active	Active	Non-toxic	Active	Active	Active	Active	Active	7.06	Non-toxic
CC(C)(C)NC(=O)[C@H]1CC[C@H]2[C@@H]3CC[C@H]4NC(=O)C=C[C@]4(C)[C@H]3CC[C@]12C [FINASTERIDE]	–	Active	–	Active	–	Non-toxic	Active	Active	Active	–	Active	6.83	–
